Experimental data reported in US10610520B2, “Heterocyclic compound” (Takeda Pharmaceutical Company Limited, priority 2016, dated 2020).

molecular target: T1, His-hMAGL (recombinant polyhistidine tagged human MAGL protein) (Homo sapiens, UniProt Q99685); experiment: Measurement of MAGL inhibitory activity (arachidonic acid production from 2-arachidonylglycerol, RapidFire-mass spectrometry); format: biochemical; conditions: MAGL inhibitory rate, test compound 10 μM, 60 min preincubation, 2-arachidonylglycerol substrate
T1 construct: made in house; host or cells: E. coli BL21(DE3)
T1 sequence (Q99685 1-303): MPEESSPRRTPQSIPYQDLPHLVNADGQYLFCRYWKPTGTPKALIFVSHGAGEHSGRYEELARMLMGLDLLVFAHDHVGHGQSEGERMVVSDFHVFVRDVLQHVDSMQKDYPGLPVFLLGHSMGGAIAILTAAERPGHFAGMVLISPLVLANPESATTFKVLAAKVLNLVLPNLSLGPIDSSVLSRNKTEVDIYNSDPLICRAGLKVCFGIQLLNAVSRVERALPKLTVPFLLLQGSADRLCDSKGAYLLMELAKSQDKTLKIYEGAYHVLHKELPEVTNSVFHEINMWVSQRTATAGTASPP
Experimental: The His-hMAGL obtained above was diluted with enzyme reaction buffer (10 mM Tris-HCl, pH 7.5, 1 mM EDTA, 0.025 (w/v) % Triton X-100, 0.01% Bovine serum albumin) to a concentration of 7.5 ng/mL. […] Thereafter, to each well was added 5 μL of 150 μM 2-arachidonylglycerol (Tocris Bioscience), and the mixture was incubated at room temperature for 10 min. Then, 10 μL of 2% formic acid (Wako Pure Chemical Industries, Ltd.) was added to stop the reaction. Furthermore, acetonitrile (50 μL) containing 3 μM arachidonic acid-d8 (Cayman Chemical Company) was added and the mixture was stirred.
The amount of arachidonic acid in the obtained enzyme reaction mixture was calculated by measuring by RapidFire-mass spectrometry and correcting by the amount of arachidonic acid-d8. High Throughput online solid phase extraction was performed using RapidFire 300™ system (Agilent Technologies, Inc.). Samples were loaded on SPE C4 cartridge (Agilent Technologies, Inc.) and desalted with 0.2 (v/v) % acetic acid (Wako Pure Chemical Industries, Ltd.) in ultrapure water/acetonitrile (70/30, v/v) at a flow rate of 1.5 mL/min, eluted at a flow rate of 0.5 mL/min with 0.2 (v/v) % acetic acid dissolved in acetonitrile/ultrapure water (90/10, v/v), and injected into the mass spectrometry part. The injection needle was washed with ultrapure water (500 millisecond) and acetonitrile (500 millisecond) to minimize carry-over. […] The RapidFire300 system was controlled by RapidFire UI software version 3.6 (Agilent Technologies, Inc.).
The mass spectrometry of the resultant product was performed using API4000™ triple quadrupole mass spectrometer (AB SCIEX) equipped with an electrospray ion sauce (TurboIon Spray™) in a negative selected reaction monitoring (SRM) mode. The conditions of SRM are shown below. The parameters of the instrument were optimized as follows: capillary temperature 600° C., ion spray voltage −4.5 kV, collision gas 8, curtain gas 15 psi, ion source gas 1 60 psi, ion source gas 2 60 psi. The mass spectrometer was controlled by Analyst™ software version 1.5.1 (AB SCIEX). The peak area integration was analyzed using RapidFire integrator software version 3.6 (Agilent Technologies, Inc.).
MAGL inhibitory rate (%) was calculated according to the following calculation formula. (1-(arachidonic acid production amount of test compound addition group−arachidonic acid production amount of enzyme-free group)÷(arachidonic acid production amount of test compound-free group−arachidonic acid production amount of enzyme-free group))×100

inhibition at 10 µM [%]	Structure (SMILES)
80	O=C1CCC2(CN(C(=O)c3cc4ccc(-c5ccc(Cl)cc5)cc4o3)C2)N1 [Example 169, 2-((6-(4-chlorophenyl)-1-benzofuran-2-yl)carbonyl)-2,5-diazaspiro[3.4]octan-6-one]
102	O=C1CCC2(CN(C(=O)N3CCC(Cc4ccc(Cl)cc4C(F)(F)F)CC3)C2)N1 [Example 105, 2-((4-(4-chloro-2-(trifluoromethyl)benzyl)piperidin-1-yl)carbonyl)-2,5-diazaspiro[3.4]octan-6-one]
100	COc1ccc(-c2ccc3c(Cl)c(C(=O)N4CC5(CCC(=O)N5)C4)sc3c2)cc1 [Example 193, 2-((3-chloro-6-(4-methoxyphenyl)-1-benzothiophen-2-yl)carbonyl)-2,5-diazaspiro[3.4]octan-6-one]
97	O=C1CCC2(CN(C(=O)c3sc4cc(C(F)(F)F)ccc4c3F)C2)N1 [Example 238, 2-((3-fluoro-6-(trifluoromethyl)-1-benzothiophen-2-yl)carbonyl)-2,5-diazaspiro[3.4]octan-6-one]
100	COc1cc(F)c2c(Cl)c(C(=O)N3CC4(COC(=O)N4)C3)sc2c1Cl [Example 294, 2-((3,7-dichloro-4-fluoro-6-methoxy-1-benzothiophen-2-yl)carbonyl)-7-oxa-2,5-diazaspiro[3.4]octan-6-one]
82	Cc1cc(C)c(-c2ccc(C(=O)N3CC4(CCC(=O)N4)C3)cc2)c(C)c1 [Example 93, 2-((2′,4′,6′-trimethylbiphenyl-4-yl)carbonyl)-2,5-diazaspiro[3.4]octan-6-one]
100	Cc1c(C(=O)N2CC3(COC(=O)N3)C2)sc2c(F)c(OC(F)(F)F)ccc12 [Example 347, 2-((7-fluoro-3-methyl-6-(trifluoromethoxy)-1-benzothiophen-2-yl)carbonyl)-7-oxa-2,5-diazaspiro[3.4]octan-6-one]
99	O=C1CCC2(CN(C(=O)c3ccc(-c4cccc(C(F)(F)F)c4F)cc3)C2)N1 [Example 49, 2-((2′-fluoro-3′-(trifluoromethyl)biphenyl-4-yl)carbonyl)-2,5-diazaspiro[3.4]octan-6-one]
88	O=C1CCC2(CN(C(=O)c3ccc(-c4ccccc4)cc3OC(F)(F)F)C2)N1 [Example 172, 2-((3-(trifluoromethoxy)biphenyl-4-yl)carbonyl)-2,5-diazaspiro[3.4]octan-6-one]
85	O=C1CCC2(CN(C(=O)c3ccc(-c4c(F)cccc4F)cc3)C2)N1 [Example 76, 2-((2′,6′-difluorobiphenyl-4-yl)carbonyl)-2,5-diazaspiro[3.4]octan-6-one]
100	Cc1ccc(F)c(-c2ccc3c(Cl)c(C(=O)N4CC5(CCC(=O)N5)C4)sc3c2)c1 [Example 202, 2-((3-chloro-6-(2-fluoro-5-methylphenyl)-1-benzothiophen-2-yl)carbonyl)-2,5-diazaspiro[3.4]octan-6-one]
100	O=C1NC2(CO1)CN(C(=O)[C@H]1C[C@H](OCc3ccc(C(F)(F)F)cc3F)C1)C2 [Example 354, 2-((trans-3-((2-fluoro-4-(trifluoromethyl)benzyl)oxy)cyclobutyl)carbonyl)-7-oxa-2,5-diazaspiro[3.4]octan-6-one]
100	O=C1NC2(CO1)CN(C(=O)[C@H]1C[C@H](OCc3ccc(C(F)(F)F)cc3Cl)C1)C2 [Example 350, 2-((trans-3-((2-chloro-4-(trifluoromethyl)benzyl)oxy)cyclobutyl)carbonyl)-7-oxa-2,5-diazaspiro[3.4]octan-6-one]
101	O=C1NC2(CO1)CN(C(=O)c1sc3cc(OC(F)F)ccc3c1Cl)C2 [Example 259, 2-((3-chloro-6-(difluoromethoxy)-1-benzothiophen-2-yl)carbonyl)-7-oxa-2,5-diazaspiro[3.4]octan-6-one]
99	Cc1ccc(-c2ccc3c(Cl)c(C(=O)N4CC5(CCC(=O)N5)C4)sc3c2)c(F)c1 [Example 207, 2-((3-chloro-6-(2-fluoro-4-methylphenyl)-1-benzothiophen-2-yl)carbonyl)-2,5-diazaspiro[3.4]octan-6-one]
97	O=C1CCC2(CN(C(=O)c3ccc(-c4cc(OC(F)(F)F)ccc4F)cc3)C2)N1 [Example 61, 2-((2′-fluoro-5′-(trifluoromethoxy)biphenyl-4-yl)carbonyl)-2,5-diazaspiro[3.4]octan-6-one]
90	Cc1c(F)ccc(F)c1-c1ccc(C(=O)N2CC3(CCC(=O)N3)C2)cc1 [Example 91, 2-((3′,6′-difluoro-2′-methylbiphenyl-4-yl)carbonyl)-2,5-diazaspiro[3.4]octan-6-one]
99	O=C1CCC2(CN(C(=O)c3sc4cc(-c5cccc(C(F)(F)F)c5)ccc4c3Cl)C2)N1 [Example 196, 2-((3-chloro-6-(3-(trifluoromethyl)phenyl)-1-benzothiophen-2-yl)carbonyl)-2,5-diazaspiro[3.4]octan-6-one]
99	O=C1NC2(CCN(C(=O)c3sc4c(F)c(C(F)(F)F)ccc4c3C(F)F)C2)CO1 (centres unmarked) [Example 333, 7-((3-(difluoromethyl)-7-fluoro-6-(trifluoromethyl)-1-benzothiophen-2-yl)carbonyl)-3-oxa-1,7-diazaspiro[4.4]nonan-2-one]
101	Cc1cccc(-c2ccc3c(Cl)c(C(=O)N4CC5(CCC(=O)N5)C4)sc3c2)c1 [Example 186, 2-((3-chloro-6-(3-methylphenyl)-1-benzothiophen-2-yl)carbonyl)-2,5-diazaspiro[3.4]octan-6-one]
96	O=C1CCC2(CCN(C(=O)N3CC(COc4ccc(C(F)(F)F)cc4F)C3)C2)N1 (centres unmarked) [Example 319, 7-((3-((2-fluoro-4-(trifluoromethyl)phenoxy)methyl)azetidin-1-yl)carbonyl)-1,7-diazaspiro[4.4]nonan-2-one]
100	O=C1NC2(CCN(C(=O)c3sc4cc(C(F)(F)F)cc(F)c4c3Cl)C2)CO1 (centres unmarked) [Example 334, 7-((3-chloro-4-fluoro-6-(trifluoromethyl)-1-benzothiophen-2-yl)carbonyl)-3-oxa-1,7-diazaspiro[4.4]nonan-2-one]
100	O=C1NC2(CO1)CN(C(=O)c1ccc(-c3cccc(C4(C(F)(F)F)CC4)c3)c(F)c1)C2 [Example 335, 2-((2-fluoro-3′-(1-(trifluoromethyl)cyclopropyl)biphenyl-4-yl)carbonyl)-7-oxa-2,5-diazaspiro[3.4]octan-6-one]
96	O=C1CCC2(CN(C(=O)N3CCC(F)(Cc4ccc(F)cc4)CC3)C2)N1 [Example 97, 2-((4-fluoro-4-(4-fluorobenzyl)piperidin-1-yl)carbonyl)-2,5-diazaspiro[3.4]octan-6-one]
85	O=C1CCC2(CN(C(=O)c3cc4cc(C(F)(F)F)ccc4s3)C2)N1 [Example 33, 2-((5-(trifluoromethyl)-1-benzothiophen-2-yl)carbonyl)-2,5-diazaspiro[3.4]octan-6-one]
86	O=C1CCC2(CN(C(=O)c3cc4cc(Br)ccc4s3)C2)N1 [Example 250, 2-((5-bromo-1-benzothiophen-2-yl)carbonyl)-2,5-diazaspiro[3.4]octan-6-one]
102	O=C1CCC2(CN(C(=O)N3CCC(Cc4ccc(Cl)cc4Cl)CC3)C2)N1 [Example 102, 2-((4-(2,4-dichlorobenzyl)piperidin-1-yl)carbonyl)-2,5-diazaspiro[3.4]octan-6-one]
94	Cn1c(-c2ccc(C(=O)N3CC4(CCC(=O)N4)C3)cc2)cc2ccccc21 [Example 56, 2-(4-(1-methyl-1H-indol-2-yl)benzoyl)-2,5-diazaspiro[3.4]octan-6-one]

same assay, conditions: MAGL inhibitory rate, test compound 10 μM, 60 min preincubation, 2-arachidonylglycerol substrate; 10 µM

% inhibition (10 μM) [%]	Structure (SMILES)
99	O=C1NC2(CO1)CN(C(=O)[C@H]1C[C@@H](OCc3ccc(C(F)(F)F)cc3F)C1)C2 (stereo in doubt) [Example 355, 2-((cis-3-((2-fluoro-4-(trifluoromethyl)benzyl)oxy)cyclobutyl)carbonyl)-7-oxa-2,5-diazaspiro[3.4]octan-6-one]
